The numbers were not newly measured in patent US20060106070A1, “Novel pyridine-based metal chelators as antiviral agents” (Bioflexis, LLC, priority 2004, published 2006), which cites them from elsewhere.

Data set [1] addresses T1, HIV-1 integrase (Human immunodeficiency virus type 1 group M subtype B, UniProt P12497).
T1 construct: HIV-1 recombinant IN (HIV-1NL 4-3 Integrase); purchased NIH AIDS Reagent program 2959
To be noted: result in words.

The target in data set [2] is T1, HIV-1 integrase. To be noted: result in words. This is another data set of the same source.

Regarding `O=C(O)C(=O)CC(=O)c1cc(OCc2ccccc2)cc(OCc2ccccc2)c1` [L-708, 906], the “inhibition of strand transfer reaction” value on HIV-1 integrase [1] was “inhibit strand transfer reaction”. Besides, at HIV-1 integrase [2], the “inhibition of 3′ processing” value is recorded as “do not inhibit 3′ processing”.
For `O=C(O)C(=O)CC(=O)c1cccn1Cc1ccc(F)cc1` [L-731,988], the “inhibition of strand transfer reaction” value on HIV-1 integrase [1] is listed as “inhibit strand transfer reaction”. The “inhibition of 3′ processing” value at HIV-1 integrase [2] is given as “do not inhibit 3′ processing”.
